Results reported in patent US8377913B2, “Vitamin D receptor activators and methods of making” (AbbVie Inc., priority 2007, dated 2013).

What was measured:
[1] = tested on: Thrombomodulin mRNA in human coronary artery smooth muscle cells (CASMC); experiment: Thrombomodulin mRNA in CASMC; format: cell-based; details: for EC50: Homo sapiens
Experimental: (§1) Primary culture of human coronary artery smooth muscle cells (CASMC) (commercially available from Cambrex, Walkersville, Md.) were grown in smooth muscle growth medium SmGM-2 (commercially available from Lonza Bioscience) containing 5.5 mM glucose, 5% FBS, 50 μg/ml gentamicin, 50 ng/ml amphotericin-B, 5 μg/ml insulin, 2 ng/ml human recombinant fibroblast growth factor (hFGF), and 0.5 ng/ml human recombinant epidermal growth factor (hEGF) at 37° C. in a humidified 5% CO2-95% air atmosphere. Cells were grown to >80% confluence and used within five passages.
(§2) Real-time reverse transcription-PCR was performed with a MyiQ Real-Time PCR Detection System (BioRad, Hercules, Calif.). Each sample has a final volume of 25 μl containing 100 ng of cDNA, […] each of the forward and reverse PCR primers and […] of the TaqMan™ probe for the gene of interest (Applied Biosystems, Foster City, Calif.). Temperature conditions consisted of a step of 5 minutes at 95° C., followed by 40 cycles of 60° C. for 1 minute and 95° C. for 15 seconds. Data was collected during each extension phase of the PCR reaction and analyzed with the software package (BioRad, Hercules, Calif.). Threshold cycles were determined for each gene. […]

[2] = tested on: Human promyelocytic leukemia (HL60) cells; experiment: HL-60 Differentiation; format: cell-based; details: HL-60, 96 h, four days incubation, NBT, absorbance 570 nm
Experimental: Human promyelocytic leukemia (HL60) cells were obtained from the American Type Culture Collection (ATCC Cat. # CCL-240, Manassas, Va.). Cells were maintained in RPMI 1640 medium (commercially available from Invitrogen, Carlsbad, Calif.) containing 10% fetal bovine serum (commercially available from Invitrogen, Carlsbad, Calif.) at 37° C. with 5% CO2. Cells were passaged weekly and were not allowed to become >90% confluent. For the assay, cells were plated at 5×10^5 cells per well in 200 uL media. Test compounds were diluted in media in concentrations between 10^−6-10^−10 M and then added to the appropriate wells. Cells were then incubated for four days at 37° C. in 5% CO2 atmosphere. After incubation, media was aspirated from each well and 75 uL of NBT solution (nitroblue tetrazolinium: 200 ng/mL PMA (phorbol 12-myrystate 13-acetate) and 2 mg/ml NBT (nitroblue tetrazolium) in distilled H2O) was added to each well followed by further incubation for 2 hours at 37° C. Following incubation, 150 uL lysis buffer (225 mL dimethylformamide, 67.5 g SDS). PMA stock solution (2 mg/ml in ethanol) was added to each well and the plate was allowed to sit at room temperature for 4 hours. HL-60 cell differentiation was assayed, Effect of each compound on cell growth was examined as a function of time; absorbance in each well was measured at 570 nm.

[3] = tested on: PAI-1 mRNA in human coronary artery smooth muscle cells (CASMC); experiment: PAI-1 mRNA in CASMC; format: cell-based; details: Homo sapiens
Experimental: as §1, §2

[4] = tested on: Thrombospondin mRNA in human coronary artery smooth muscle cells (CASMC); experiment: Thrombospondin mRNA in CASMC; format: cell-based; details: Homo sapiens
Experimental: as §1, §2

[5] = tested on: Male, C57BL6, mice; experiment: Normal Mouse Calcemia Model; format: in vivo; details: s.c. once daily for 3 days, dose giving 1 mg/dL change in total Ca
Experimental: Male, C57BL6, mice were obtained from Jackson Laboratories. The mice were habituated for four days while maintained on a normal diet (D10001, Research Diets Inc.). Treatment was initiated with vehicle (20% ethanol/30% propylene glycol/50% water, 0.05 mL, s.c.) or test agent administered over a three log dose range. The animals were dosed once daily for 3 days. Twenty-four hours after the last dose, animals were anesthetized with ketamine/xylazine (100/18 mg/kg) and bled by cardiac puncture for measurement of PTH and other end points.
Measurement of PTH and minerals: Calcium (Ca), serum phosphorus (Pi), creatinine and BUN were measured from serum using an Abbott Aeroset® (Abbott Laboratories, Abbott Park, Ill.). Blood ionized calcium (iCa) was determined using the i-STAT® system (Abbott Laboratories, East Windsor, N.J.). Serum PTH was measured using a mouse parathyroid hormone (PTH) EIA kit obtained from ALPCO/Immutopics, Inc. (Windham, N.H.). Selected data is shown is Table 6. The graphs in FIG. 4 give an indication of dose response. Notable is that Example 1 produced an approximately 30% reduction in PTH over at least a three log dose range without a concomitant elevation of serum calcium of greater than 1 mg/dL.
Data analysis: Mean±standard error of the mean was calculated for each group. One way ANOVA followed by a Dunnett's test was used to assess differences between vehicle and drug-treated groups. *p<0.05=significance.

[6] = tested on: Renin mRNA in As4.1 cells; experiment: Renin mRNA in As4.1 cells transfected with pcDNA-hVDR (real-time RT-PCR); format: cell-based
Experimental: As4.1 cells (ATCC, Manassas, Va.) were cultured in Dulbecco's Modified Eagle Medium DMEM (commercially available from Invitrogen, Carlsbad, Calif.) with 10% fetal bovine serum at 37° C. in a humidified 5% CO2-95% air atmosphere. C3;ells were transfected with the pcDNA-hVDR plasmid (provided by Yan Chun Li, University of Chicago) by LIPOFECTAMINE™ 2000 (Invitrogen, Carlsbad, Calif.). siRNA was transfected with the pcDNA-hVDR plasmid by LIPOFECTAMINE™ 2000 according to the manufacturer's protocol. Twenty-four hours after transfection, cells were treated with test agents.
Real-time reverse transcription-PCR was performed with a MyiQ Real-time PCR Detection System (commercially available from BioRad, Hercules, Calif.). […] TaqMan™ probes that were 5′ labeled with the reporter 6-carboxyfluorescein (FAM) and 3′ labeled with the quencher tetramethylrhodamine (TAMRA) were used and the primer and probe sets were obtained from Applied Biosystems (Foster City, Calif.). Temperature conditions consisted of a step of 5 minutes at 95° C., followed by 45 cycles of 60° C. for 1 minute and 95° C. for 15 seconds. Data was collected during each extension phase of the PCR reaction and analyzed with the accompanying software package (BioRad, Hercules, Calif.). Threshold cycles were determined for each gene.

[7] = tested on: VDR (VDRE-luciferase-reporter construct); experiment: VDRE Reporter Gene Assay in HEK cells with stable expression of VDR; format: cell-based; details: Homo sapiens, HEK293, 24 hours
Experimental: Compound activity was also assessed by looking at a Vitamin D Response Element (VDRE) reporter gene assay, Human Embryonic Kidney cells (HEK cells) with a stable expression of VDR were cultured in 96-well plates at ˜4×10^5 cells/mL (100 μL/well) in DMEM medium containing 10% fetal calf serum. Cells were transfected with 0.2 μg per well of a VDRE-luciferase-reporter construct (from Y. Li, University of Chicago) and then treated with test agents at indicated concentrations for 24 hours. The luciferase activity was then measured following the manufacturer's instructions (Promega, Madison, Wis.).

[8] = target: T1, recombinant full-length human Vitamin D nuclear receptor (Homo sapiens, UniProt P11473); experiment: biochemical
T1 sequence (P11473 1-427): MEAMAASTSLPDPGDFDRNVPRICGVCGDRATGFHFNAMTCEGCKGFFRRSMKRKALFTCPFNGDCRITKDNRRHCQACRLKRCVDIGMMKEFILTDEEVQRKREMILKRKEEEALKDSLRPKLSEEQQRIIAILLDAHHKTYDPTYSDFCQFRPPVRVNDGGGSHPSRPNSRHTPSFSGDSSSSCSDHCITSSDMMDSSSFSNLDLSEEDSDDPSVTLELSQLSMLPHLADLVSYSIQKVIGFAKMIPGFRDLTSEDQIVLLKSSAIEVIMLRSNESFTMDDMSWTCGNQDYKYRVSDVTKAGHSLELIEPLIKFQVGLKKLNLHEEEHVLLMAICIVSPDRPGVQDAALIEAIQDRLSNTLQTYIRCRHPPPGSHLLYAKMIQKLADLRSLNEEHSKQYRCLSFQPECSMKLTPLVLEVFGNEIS
Experimental: In vitro binding of selected compounds according to the invention to VDR was assessed using the following procedure. […] Each test compound was then serially diluted in binding buffer to concentrations appropriate for the assay, as one skilled in the art can determine.
Final assay volume was 100 uL. The filled plate was incubated overnight at 4° C. with gentle shaking. After 18 hours of incubation, 20 uL of wheat germ agglutinin-coated yttrium silicate scintillation proximity assay (SPA) beads (commercially available from Amersham Biosciences, Piscataway, N.J.; Part # RPNQ0270) resuspended in binding buffer was added to each well (200 ug/well) and the plate was incubated at room temperature for 2 hours with gentle shaking.

## C=C1/C(=C\C=C2/CCC[C@]3(C)[C@@H]([C@H](C)CCCC(C)(C)O)CC[C@@H]23)C[C@@H](O)C[C@@H]1O [Calcitriol, 1,25-dihydroxyvitamin D3, reference compound]
[1]
  EC50: 1.6 nM
[2]
  EC50: 7 nM
[3]
  IC50: 0.8 nM
[4]
  IC50: 19.1 nM
[5]
  1 mg/dL Δ total Ca: 0.026 µg/kg
[6]
  IC50: 1.6 nM

## C=C1[C@H](O)CC(=C/C=C2\CCC[C@]3(C)[C@@H]([C@H](C)COC(=O)C(C)(C)CC)CC[C@@H]23)C[C@H]1O [Example 4, (2S)-2-[(1R,3R,7E,17β)-1,3-dihydroxy-2-methylene-9,10-secoestra-5,7-dien-17-yl]propyl 2,2-dimethylbutanoate]
[1]
  EC50: 84.7 nM
[2]
  EC50: 0.7 nM
[3]
  IC50: 0.02 nM
[7]
  EC50: 1.3 nM
[4]
  IC50: 0.001 nM
[6]
  IC50: 3.4 nM
[8]
  IC50: 62.4 nM

## C=C1[C@H](O)CC(=C/C=C2\CCC[C@]3(C)[C@@H]([C@@H](C)COC(=O)C(C)(C)C)CC[C@@H]23)C[C@H]1O [Example 3, (2R)-2-[(1R,3R,7E,17β)-1,3-dihydroxy-2-methylene-9,10-secoestra-5,7-dien-17-yl]propyl pivalate]
[1]
  EC50: 39.9 nM
[2]
  EC50: 3.9 nM
[3]
  IC50: 0.003 nM
[7]
  EC50: 0.9 nM
[4]
  IC50: 0.002 nM
[6]
  IC50: 0.4 nM
[8]
  IC50: 1330 nM

## C=C1[C@H](O)CC(=C/C=C2\CCC[C@]3(C)[C@@H]([C@H](C)COC(=O)NC(C)(C)C)CC[C@@H]23)C[C@H]1O [Example 5, (2S)-2-[(1R,3R,7E,17β)-1,3-dihydroxy-2-methylene-9,10-secoestra-5,7-dien-17-yl]propyl tert-butylcarbamate]
[1]
  EC50: 5.6 nM
[3]
  IC50: 0.002 nM
[7]
  EC50: 0.3 nM
[4]
  IC50: 0.001 nM
[6]
  IC50: 2.4 nM
[8]
  IC50: 0.1 nM

## C[C@H](/C=C/[C@H](C)C(C)(C)O)[C@H]1CC[C@H]2/C(=C/C=C3C[C@@H](O)C[C@H](O)C3)CCC[C@]12C [Paricalcitol, paricalcitol, reference compound]
[1]
  EC50: 1.5 nM
[2]
  EC50: 16 nM
[3]
  IC50: 0.5 nM
[7]
  EC50: 5.9 nM
[4]
  IC50: 0.2 nM
[5]
  1 mg/dL Δ total Ca: 0.286 µg/kg
[6]
  IC50: 0.8 nM
[8]
  IC50: 14.6 nM

## C=C1[C@H](O)CC(=C/C=C2\CCC[C@]3(C)[C@@H]([C@H](C)CO)CC[C@@H]23)C[C@H]1O [Example 2, (1R,3R,7E,17β)-17-[(1S)-2-hydroxy-1-methylethyl]-2-methylene-9,10-secoestra-5,7-diene-1,3-diol]
[1]
  Thrombomodulin mRNA in CASMC EC50: inactive
[2]
  EC50: 162 nM
[3]
  IC50: 0.03 nM
[7]
  EC50: 52.7 nM
[4]
  IC50: 3.7 nM
[6]
  IC50: 0.7 nM
[8]
  IC50: 890 nM
